Measured values reported in patent US11007136B2, “Cosmetic composition for wrinkle reduction containing gypenoside isolated from Gynostemma pentaphyllum” (CELLTRION INC., priority 2015, dated 2021).

Assay: Stability of the fraction in raw material solution (HPLC content of UL4, UL5)
Format: physicochemical
Conditions: for content stability Results: over 12 weeks
Experimental: A solution obtained by dissolving powder of the Gynostemma pentaphyllum gypenoside fraction at a concentration of 4% in 100 mL of a mixed solvent of propylene glycol, glycerin and distilled water at a ratio of 5:3:2 was used to identify stability of the Gynostemma pentaphyllum gypenoside fraction in a raw material state. While the solution was being stored under a condition of 4° C., 30° C. and 45° C. and sunlight for 12 weeks, changes with passage of time (% compared to an initial content) in the gypenosides UL4 and UL5, which were index ingredients for quantification out of the Gynostemma pentaphyllum gypenosides, were observed through an HPLC analysis and results thereof were indicated in Table 3.

SMILES: CC(C)=CC1C[C@](O)([C@H]2CC[C@]3(C)[C@@H]2CC[C@@H]2[C@@]4(C=O)CC[C@H](O[C@@H]5OC[C@H](O)[C@H](O[C@@H]6OC[C@@H](O)[C@H](O)[C@H]6O)[C@H]5O[C@@H]5O[C@@H](C)[C@H](O)[C@@H](O)[C@H]5O)C(C)(C)[C@@H]4CC[C@]23C)[C@H](O)O1 (stereo partly drawn) [Gypenoside UL4, (23ξ)-3β,20β,21α-trihydroxy-19-oxo-21,23-epoxy-dammar-24-ene-3-O-[α-L-rhamnopyranosyl (1→2)][β-D-xylopyranosyl (1→3)]-α-L-arabinopyranoside]
- content, % compared to an initial content (4° C., 1 week): 100.2%
- content, % compared to an initial content (4° C., 2 weeks): 98.1%
- content, % compared to an initial content (4° C., 4 weeks): 96.9%
- content, % compared to an initial content (4° C., 8 weeks): 98.3%
- content, % compared to an initial content (4° C., 12 weeks): 96.1%
- content stability Results (4° C.): Stable
- content, % compared to an initial content (30° C., 1 week): 102.8%
- content, % compared to an initial content (30° C., 2 weeks): 99.9%
- content, % compared to an initial content (30° C., 4 weeks): 98.7%
- content, % compared to an initial content (30° C., 8 weeks): 96.5%
- content, % compared to an initial content (30° C., 12 weeks): 96.6%
- content stability Results (30° C.): Stable
- content, % compared to an initial content (45° C., 1 week): 97.1%
- content, % compared to an initial content (45° C., 2 weeks): 96.3%
- content, % compared to an initial content (45° C., 4 weeks): 102.7%
- content, % compared to an initial content (45° C., 8 weeks): 97.5%
- content, % compared to an initial content (45° C., 12 weeks): 102.4%
- content stability Results (45° C.): Stable
- content, % compared to an initial content (Sunlight, 1 week): 97.6%
- content, % compared to an initial content (Sunlight, 2 weeks): 96.6%
- content, % compared to an initial content (Sunlight, 4 weeks): 96.6%
- content, % compared to an initial content (Sunlight, 8 weeks): 98.1%
- content, % compared to an initial content (Sunlight, 12 weeks): 97.1%
- content stability Results (Sunlight): Stable

SMILES: CC(C)=CC1C[C@](O)([C@H]2CC[C@]3(C)[C@@H]2CC[C@@H]2[C@@]4(C=O)CC[C@H](O[C@@H]5OC[C@H](O)[C@H](O[C@@H]6O[C@H](CO)[C@@H](O)[C@H](O)[C@H]6O)[C@H]5O[C@@H]5O[C@@H](C)[C@H](O)[C@@H](O)[C@H]5O)C(C)(C)[C@@H]4CC[C@]23C)[C@H](O)O1 (stereo partly drawn) [Gypenoside UL5, (23ξ)-3β,20β,21α-trihydroxy-19-oxo-21,23-epoxy-dammar-24-ene-3-O-[α-L-rhamnopyranosyl (1→2)][β-D-glucopyranosyl (1→3)]-α-L-arabinopyranoside]
- content, % compared to an initial content (4° C., 1 week): 98.8%
- content, % compared to an initial content (4° C., 2 weeks): 101.3%
- content, % compared to an initial content (4° C., 4 weeks): 97%
- content, % compared to an initial content (4° C., 8 weeks): 97.9%
- content, % compared to an initial content (4° C., 12 weeks): 98.1%
- content stability Results (4° C.): Stable
- content, % compared to an initial content (30° C., 1 week): 101.8%
- content, % compared to an initial content (30° C., 2 weeks): 98.2%
- content, % compared to an initial content (30° C., 4 weeks): 99%
- content, % compared to an initial content (30° C., 8 weeks): 101.2%
- content, % compared to an initial content (30° C., 12 weeks): 102.9%
- content stability Results (30° C.): Stable
- content, % compared to an initial content (45° C., 1 week): 97.6%
- content, % compared to an initial content (45° C., 2 weeks): 97.5%
- content, % compared to an initial content (45° C., 4 weeks): 96.9%
- content, % compared to an initial content (45° C., 8 weeks): 99.2%
- content, % compared to an initial content (45° C., 12 weeks): 103.8%
- content stability Results (45° C.): Stable
- content, % compared to an initial content (Sunlight, 1 week): 101.1%
- content, % compared to an initial content (Sunlight, 2 weeks): 98.4%
- content, % compared to an initial content (Sunlight, 4 weeks): 98.8%
- content, % compared to an initial content (Sunlight, 8 weeks): 97.2%
- content, % compared to an initial content (Sunlight, 12 weeks): 97.8%
- content stability Results (Sunlight): Stable
